Reference: patent US20260364080A1, “PYRAZOLO-PYRIMIDINONE COMPOUNDS FOR USE IN METHODS OF INHIBITING WEE1 A KINASE” (Acrivon Therapeutics, Inc., priority 2023, published 2026)
Where two headings read alike, the source gives them in different places.

Experiments:
[1] = target: T1, Myt1 kinase (recombinant PMYT-1) (Homo sapiens, UniProt Q99640); experiment: Myt1 kinase binding assay (LanthaScreen Eu Kinase Binding Assay)
T1 construct: full length PMYT-1 was expressed by baculovirus in insect cells; purchased Invitrogen A30984; host or cells: insect cells (baculovirus)
T1 sequence (Q99640 1-499): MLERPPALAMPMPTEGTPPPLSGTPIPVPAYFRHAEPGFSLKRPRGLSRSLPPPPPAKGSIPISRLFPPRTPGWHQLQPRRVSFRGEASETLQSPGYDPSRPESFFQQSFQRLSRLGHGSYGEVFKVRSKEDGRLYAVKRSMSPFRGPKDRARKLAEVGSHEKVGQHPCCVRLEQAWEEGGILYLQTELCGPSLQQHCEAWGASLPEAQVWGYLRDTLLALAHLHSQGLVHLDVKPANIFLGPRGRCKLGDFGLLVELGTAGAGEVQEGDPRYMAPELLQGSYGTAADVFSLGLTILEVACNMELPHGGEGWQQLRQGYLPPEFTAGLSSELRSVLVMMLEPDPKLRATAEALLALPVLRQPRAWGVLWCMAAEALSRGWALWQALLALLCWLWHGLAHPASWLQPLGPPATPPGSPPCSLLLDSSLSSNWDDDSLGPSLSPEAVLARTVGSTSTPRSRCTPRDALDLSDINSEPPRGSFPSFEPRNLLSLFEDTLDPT
Procedure: (§1) To calculate the emission ratio, the acceptor/tracer emission ([…]) was divided by the antibody/donor emission ([…]) and the average of duplicate measurement was used for calculations. Data plotting, analysis of binding, and curve fitting was done using Excel add-in XLfit version 5.5.0.5 (IDBS, Guildford, United Kingdom). […] “NT” means not tested.
We used a LanthaScreen Europium (Eu) Kinase Binding Assay to determine the binding affinities (IC50) of compounds to Myt1 kinase. […] “NT” designates that the compound was not tested in this assay.

[2] = target: T2, recombinant human Wee1A kinase (Homo sapiens, UniProt P30291); experiment: Wee1A kinase binding assay (LanthaScreen Eu time-resolved FRET)
T2 construct: full length Wee1 kinase was expressed by baculovirus in insect cells; purchased Invitrogen PV3817; host or cells: insect cells (baculovirus)
T2 sequence (P30291 whole entry): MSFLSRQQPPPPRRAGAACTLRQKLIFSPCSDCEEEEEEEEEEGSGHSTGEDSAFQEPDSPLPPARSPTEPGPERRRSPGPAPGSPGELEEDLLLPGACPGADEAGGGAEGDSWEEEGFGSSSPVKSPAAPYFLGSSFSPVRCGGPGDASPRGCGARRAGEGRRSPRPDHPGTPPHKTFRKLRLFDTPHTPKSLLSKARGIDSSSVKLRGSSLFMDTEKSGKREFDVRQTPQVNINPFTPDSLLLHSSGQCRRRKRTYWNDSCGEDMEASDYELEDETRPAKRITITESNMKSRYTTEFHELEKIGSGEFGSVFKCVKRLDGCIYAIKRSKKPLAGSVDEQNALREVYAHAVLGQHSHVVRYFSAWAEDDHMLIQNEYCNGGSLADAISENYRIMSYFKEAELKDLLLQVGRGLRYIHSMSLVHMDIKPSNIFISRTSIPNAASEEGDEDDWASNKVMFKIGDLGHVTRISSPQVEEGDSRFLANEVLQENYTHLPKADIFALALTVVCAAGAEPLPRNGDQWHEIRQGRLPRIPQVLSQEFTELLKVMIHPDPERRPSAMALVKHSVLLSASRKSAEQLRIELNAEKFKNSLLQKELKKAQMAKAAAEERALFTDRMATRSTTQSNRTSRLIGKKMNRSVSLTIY
Procedure: This time resolved-FRET binding assay was performed in white 384-well low volume plates (Greiner, cat #784075), at room temperature in kinase buffer A (KBA; Invitrogen cat #PV3189), consisting of 50 mM HEPES-NaOH (pH 7.5), 0.01% Brij-35, 10 mM MgCl2, and 1 mM EGTA. 5 μL of compound (diluted in reaction buffer, to 1% DMSO) were added to various wells in the plate, followed by 5 μL each of recombinant human Wee1A kinase (full length Wee1 kinase was expressed by baculovirus in insect cells using a N-terminal GST tag (MW: 99.1 kDa) (Invitrogen cat #PV3817) and LanthaScreen Eu-anti-GST antibody (Invitrogen, cat #PV5594). After this, 5 μL of kinase tracer 178 (Invitrogen, cat #PV5593) was added to the plate and the plate was incubated for 60 minutes at room temperature. The final assay conditions in each well were: 30 nM tracer 178, 5 nM Wee1A kinase and 2 nM Eu-labeled antibody in total assay volume of 15 μL. An Envision 2104 (Perkin-Elmer) Plate Reader with the following time-resolve fluorescence setting was used for performing LanthaScreen kinase binding assay. • Excitation 320 nm (30 nm bandpass) • Kinase Tracer Emission 665 nm (10 nm bandpass) • LanthaScreen Eu-anti-Tag Antibody Emission 615 nm (10 nm bandpass) • Dichroic Mirror Instrument dependent • Delay Time 100 μs • Integration Time 200 μs
as §1

[3] = target: T3, Wee1A kinase (CDK1 Tyr15 phosphorylation in ACHN renal cell carcinoma cells) (Homo sapiens, UniProt P30291); experiment: High-content imaging of pCdk1 Y15, Wee1A kinase target engagement in ACHN cells; type: cell-based
T3 construct: pCDK1 Tyr15 immunofluorescence read-out
T3 sequence (P30291 whole entry): as above
Procedure: Each of an ACHN renal cell carcinoma cell line (ATCC) and a DAOY medulloblastoma cell line, and an A427 lung cancer line were cultured in Minimum Essential Medium Eagle supplemented with 10% fetal calf serum (Sigma), 1% Penicillin-Streptomycin and 10 mM HEPES buffer (HyClone). Cell cultures were kept in a humidified incubator at 37 °C and 5% CO2. Cells were routinely tested for Mycoplasma contamination.
For target engagement assessment of Wee1A kinase inhibition, high-content imaging of ACHN renal cell carcinoma cells was used for quantification of CDK1 phosphorylated on tyrosine 15 by immunofluorescence (“IF”). 20,000 cells per well were seeded in tissue culture treated 96 well plates and treated with compounds at concentrations ranging from 7 to 5,000 nM or from 0.3 to 200 nM for 4h. Cells were fixated for 15 minutes in 4% paraformaldehyde solution, washed in PBS and permeabilized using 0.2% Triton X-100. Blocking was performed for 1 h at RT using Blocker FL Fluorescent Blocking Buffer (Thermo Scientific), thereafter cells were incubated with primary antibody (rabbit anti-pCDK1 Y^15, #4539, Cell Signaling Technology) at 4 °C ON. Alexa Fluor Plus 647 labelled goat anti-rabbit (A32733, Thermo Scientific) was used as secondary antibody. After washing in PBS, nuclei were stained with DAPI solution for 10 min at RT, protected from light. Cells were imaged using an ImageXpress Pico automated imaging system and CellReporter Xpress software (Molecular Devices). The percentage of cells with nuclear positivity for pCdk1 Y^15 compared to DMSO control was determined for each well and drug dose response curves and EC50 values were calculated and visualized using GraphPad Prism. Target engagement for Wee1A kinase can also be measured using the same AlphaLISA assay in OVCAR3 cells, an ovarian cancer cell line. NIH:OVCAR-3 (OVCAR3) cells are cultured in RPMI-1640 medium supplemented with 0.01 mg/ml insulin, 20% FBS, 1% Penicillin-Streptomycin and 10 mM HEPES buffer. 14,000 cells per well are seeded into 96 well tissue culture plates in full medium. Twenty-four hours post seeding, cells are treated with compound for 4 hours at concentrations ranging from 0.017 nM to 1000 nM.

[4] = 3 nM tracer 178, 2.5 nM PMYT-1, 1 nM Eu-labeled antibody, read-out: Myt1 kinase Binding IC50
[5] = 30 nM tracer 178, 5 nM Wee1A kinase, 2 nM Eu-labeled antibody, 60 minutes at room temperature, read-out: Wee1A kinase Binding IC50
[6] = 4 h treatment, nuclear positivity for pCdk1 Y15 vs DMSO control, read-out: CDK1 Tyr15 Phosphorylation EC50

Work on `C=CCn1c(=O)c2cnc(Nc3ccc4c(cnn4C4CC4)c3)nc2n1-c1cccc(OC2CCNCC2)n1` [Compound 376, 2-allyl-6-((1-cyclopropyl-1H-indazol-5-yl)amino)-1-(6-(piperidin-4-yloxy)pyridin-2-yl)-1,2-dihydro-3H-pyrazolo[3,4-d]pyrimidin-3-one] yielded an IC50 [1, 4] of less than 20 nM, an IC50 [2, 5] of less than 10 nM and an EC50 [3, 6] of less than 100 nM.
`C=CCn1c(=O)c2cnc(Nc3ccc(F)cc3)nc2n1-c1cccc(O[C@H]2CCCNCC2)n1` (single isomer, unassigned) [Compound 266] was tested, and the IC50 [1, 4] was 20 to 100 nM, the IC50 [2, 5] was less than 10 nM and the EC50 [3, 6] was 100 to 500 nM.
In the case of `C=CCn1c(=O)c2cnc(Nc3cnn(CC(C)C)c3)nc2n1-c1cccc(N(C)C2CCN(C)CC2)n1` [Compound 175, 1-{6-[methyl(1-methylpiperidin-4-yl)amino]pyridin-2-yl}-6-{[1-(2-methylpropyl)-1H-pyrazol-4-yl]amino}-2-(prop-2-en-1-yl)-1H,2H,3H-pyrazolo[3,4-d]pyrimidin-3-one], the IC50 ([1]; Myt1 kinase Binding IC50, 3 nM tracer 178, 2.5 nM PMYT-1, 1 nM Eu-labeled antibody) is reported as greater than 500 nM, the IC50 [2] is reported as less than 10 nM and the EC50 ([3]; read-out: CDK1 Tyr15 Phosphorylation EC50, 4 h treatment, nuclear positivity for pCdk1 Y15 vs DMSO control) is reported as 500 to 1000 nM.
In the case of `CCn1c(=O)c2cnc(Nc3cccc(-c4cncnc4)c3)nc2n1-c1cccc(OC2CCNCC2)n1` [Compound 366, 2-ethyl-1-[6-(4-piperidyloxy)-2-pyridyl]-6-[m-(5-pyrimidinyl)phenylamino]-1,2-dihydro-3H-1,2,5,7-tetraazainden-3-one], the IC50 [1, 4] is reported as 100 to 500 nM, the IC50 [2, 5] is reported as less than 10 nM and the EC50 [3, 6] is reported as 500 to 1000 nM.
For `C=CCn1c(=O)c2cnc(Nc3ccc4c(cnn4C)c3)nc2n1-c1cccc(OC2CCNCC2)c1` [Compound 223, 2-allyl-6-(1-methyl-1H-indazol-5-ylamino)-1-[m-(4-piperidyloxy)phenyl]-1,2-dihydro-3H-1,2,5,7-tetraazainden-3-one], the IC50 [1, 4] was greater than 500 nM, the IC50 [2, 5] was less than 10 nM and the EC50 [3, 6] was 100 to 500 nM.
`C=CCn1c(=O)c2cnc(Nc3cnn(C(C)C)c3)nc2n1-c1cccc(OC2CC3CCCC(C2)N3C)n1` (stereo not drawn) [Compound 193, 2-allyl-6-(1-isopropyl-4-pyrazolylamino)-1-{6-(9-methyl-9-azabicyclo[3.3.1]non-3-yloxy)-2-pyridyl}-1,2-dihydro-3H-1,2,5,7-tetraazainden-3-one] showed an IC50 [1, 4] greater than 500 nM, an IC50 [2, 5] of less than 10 nM and an EC50 [3, 6] of 100 to 500 nM.
Compound `C=CCn1c(=O)c2cnc(Nc3ccc4c(cnn4C)c3)nc2n1-c1cccc(N[C@H]2CCNC2)n1` [Compound 107, 1-{6-[(S)-3-pyrrolidinylamino]-2-pyridyl}-2-allyl-6-(1-methyl-1H-indazol-5-ylamino)-1,2-dihydro-3H-1,2,5,7-tetraazainden-3-one] has an IC50 [1, 4] of 20 to 100 nM, an IC50 [2, 5] of less than 10 nM and an EC50 [3, 6] greater than 1000 nM.
With `C=CCn1c(=O)c2cnc(Nc3ccc4c(cnn4C)c3)nc2n1-c1cccc(O[C@H]2CCCNCC2)n1` (single isomer, unassigned) [Compound 358] the IC50 [1, 4] was 100 to 500 nM, the IC50 [2, 5] was less than 10 nM and the EC50 [3, 6] was less than 100 nM.
For `C=CCn1c(=O)c2cnc(Nc3ccc(F)cc3)nc2n1-c1cccc(OC2CCCNCC2)n1` (single isomer, unassigned) [Compound 344], the IC50 [1, 4] was greater than 500 nM, the IC50 [2, 5] was less than 10 nM and the EC50 [3, 6] was 100 to 500 nM.
With `CCn1c(=O)c2cnc(Nc3cccc(-c4ccccc4)c3)nc2n1-c1cccc(OC2CCN(C)CC2)n1` [Compound 339, 6-(3-biphenylylamino)-2-ethyl-1-[6-(1-methyl-4-piperidyloxy)-2-pyridyl]-1,2-dihydro-3H-1,2,5,7-tetraazainden-3-one] the IC50 [1, 4] was 20 to 100 nM, the IC50 [2, 5] was less than 10 nM and the EC50 [3, 6] was greater than 1000 nM.
In the case of `C=CCn1c(=O)c2cnc(Nc3cccc(C)c3)nc2n1-c1cccc(NC2CCNCC2)n1` [Compound 126, 2-allyl-1-[6-(4-piperidylamino)-2-pyridyl]-6-m-toluidino-1,2-dihydro-3H-1,2,5,7-tetraazainden-3-one], the IC50 [1, 4] is reported as greater than 500 nM, the IC50 [2, 5] is reported as less than 10 nM and the EC50 [3, 6] is reported as 100 to 500 nM.
In the case of `C=CCn1c(=O)c2cnc(Nc3ccc4nccnc4c3)nc2n1-c1cccc(OC2CCNCC2)n1` [Compound 239, 2-allyl-1-[6-(4-piperidyloxy)-2-pyridyl]-6-(6-quinoxalinylamino)-1,2-dihydro-3H-1,2,5,7-tetraazainden-3-one], the IC50 [1, 4] is reported as less than 20 nM, the IC50 [2, 5] is reported as less than 10 nM and the EC50 [3, 6] is reported as 100 to 500 nM.
`C=CCn1c(=O)c2cnc(Nc3ccc(Cl)cc3)nc2n1-c1cccc(O[C@H]2CCN(C)C2)n1` [Compound 148, 1-{6-[(S)-1-methyl-3-pyrrolidinyloxy]-2-pyridyl}-2-allyl-6-(p-chlorophenylamino)-1,2-dihydro-3H-1,2,5,7-tetraazainden-3-one] was tested, and the IC50 [1, 4] was 20 to 100 nM, the IC50 [2, 5] was less than 10 nM and the EC50 [3, 6] was 100 to 500 nM.
Work on `C=CCn1c(=O)c2cnc(Nc3ccc(Cl)cc3)nc2n1-c1cccc(N(C)[C@H]2CCCN(C)C2)n1` [Compound 164, 1-(6-{[(S)-1-methyl-3-piperidyl]-N-methylamino}-2-pyridyl)-2-allyl-6-(p-chlorophenylamino)-1,2-dihydro-3H-1,2,5,7-tetraazainden-3-one] yielded an IC50 [1, 4] greater than 500 nM and an IC50 [2, 5] of 10 to 100 nM.
In the case of `C=CCn1c(=O)c2cnc(Nc3ccc(Cl)cc3)nc2n1-c1cccc(N(C)[C@@H]2CCCN(C)C2)n1` [Compound 163, (R)-2-allyl-6-((4-chlorophenyl)amino)-1-(6-(methyl(1-methylpiperidin-3-yl)amino)pyridin-2-yl)-1,2-dihydro-3H-pyrazolo[3,4-d]pyrimidin-3-one], the IC50 [1, 4] is reported as greater than 500 nM and the IC50 [2, 5] is reported as 10 to 100 nM.
Compound `CCn1c(=O)c2cnc(Nc3cnn(C)c3)nc2n1-c1cccc(OC2CCN(C)CC2)n1` [Compound 341, 2-ethyl-6-[(1-methyl-1H-pyrazol-4-yl)amino]-1-{6-[(1-methylpiperidin-4-yl)oxy]pyridin-2-yl}-1H,2H,3H-pyrazolo[3,4-d]pyrimidin-3-one] has an IC50 [1, 4] of 20 to 100 nM and an EC50 [3, 6] of 100 to 500 nM.
